These results are taken from paper PMC12567141, “Design, Synthesis and Biological Evaluation of Pyrazolopyrimidine Derivatives as Aryl Hydrocarbon Receptor Antagonists for Colorectal Cancer Immunotherapy” (Pharmaceutics, 2025).

Experiment [1] deals with PD-L1 expression in MC38 and CT26 cancer cells. In words: PD-L1 expression by FACS in IFNγ-treated colorectal cancer cells. Type of experiment: cell-based. Here is the method: (§1) For analysis of PD-L1 expression in colorectal cancer cells, MC38 in 24-well plates were treated with IFNγ (10 ng/mL) for 24 h and incubated with 5 and 10 μM for 24 h. Cells were collected and stained with APC-conjugated PD-L1 Ab at 4 °C for 30 min (BioLegend). After washing with FACS buffer (Biolegend) three times, the cells were analysed using Becton Dickinson LSRFortessa^TM and analyzed with FlowJo software. Isotype-matched monoclonal antibodies were used as controls. The data were analysed using Flowjo analysis software (FlowJo LLC, Ashland, OR, USA).

Experiment [2] deals with p53/p21/caspase-3 signaling pathway in MC38 and CT26 cells. As to the kind of experiment: Western blot of apoptosis-regulating proteins. The format is cell-based. The settings on record: 24 h. Here is the method: For the extraction of total protein, cells were treated with 7k for 24 h in a CO2 incubator at 37 °C and washed twice with phosphate-buffered saline (PBS). Cell pellets were lysed using radioimmunoprecipitation assay (RIPA) buffer (Thermo Fisher Scientific) containing a protease and phosphatase inhibitor cocktail kit (Thermo Fisher Scientific). The lysed cells were briefly vortexed at intervals and subsequently centrifuged at 13,000× g at 4 °C. The protein sample was quantified with the bicinchoninic acid (BCA) protein assay kit (Thermo Fisher Scientific).
Equal amounts of proteins were loaded onto 10% sodium dodecyl sulfate polyacrylamide gel electrophoresis and transferred onto PVDF membranes (Millipore, Billerica, MA, USA). The membrane was blocked with 5% skim milk in Tris-buffered saline (TBS) containing Tween-20 (TBS-T) for an hour and probed with the respective primary antibodies in 5% BSA overnight at 4 °C. Following incubation, the membrane was probed with horseradish peroxidase (HRP)-conjugated secondary antibodies for an hour at room temperature. The membrane was washed three times with TBS-T and the signal was visualized using an enhanced chemiluminescence (ECL) detection reagent (GE Healthcare Life Sciences, Pittsburgh, PA, USA).
The primary antibodies used were as follows: Total p53 (Santa Cruz Biotechnology, Dallas, TX, USA, working dilution 1:500), PARP (CST, Danvers, MA, USA; working dilution 1:1000), cleaved caspase3 (CST, MA, USA; working dilution 1:1000), p21 (CST, MA, USA; working dilution 1:1000), Bcl-2 (CST, MA, USA; working dilution 1:1000), AhR (Santa Cruz; working dilution 1:500), LaminB1 (CST, MA, USA; working dilution 1:2000), GAPDH (Abcam, Cambridge, UK; working dilution 1:5000) and β-actin (CST, MA, USA; dilution 1:5000). HRP-conjugated secondary antibodies used were as follows: anti-mouse (CST, MA, USA) and anti-rabbit (CST, MA, USA).

Experiment [3] has as its system CD8+ IFNγ + T lymphocytes. As to the kind of experiment: Flow cytometry of CD8+ IFNγ+ T lymphocytes in splenocytes of tumour-bearing mice. The settings on record: vs vehicle or single therapy. Type of experiment: in vivo. How it is done: For analysis of CD8+ IFNγ + T lymphocytes, splenocytes were collected from tumour-bearing mice and stimulated with a cell activation cocktail (BioLegend, San Diego, CA, USA) in the presence of Brefeldin A for 6 h. Splenocytes were stained with APC-conjugated CD8 and APC-Cy7-conjugated IFNγ Ab at 4 °C for 30 min (BioLegend). After washing with FACS buffer (Biolegend) three times, the cells were analysed using Becton Dickinson LSRFortessa^TM and analyzed with FlowJo software. Isotype-matched monoclonal antibodies were used as controls. The data were analysed using Flowjo analysis software v11. (Flowjo LLC, Ashland, OR, USA).

For experiment [4], the system named is PD-1 expression in Jurkat/PD-1 cells. As to the kind of experiment: PD-1 expression by FACS in PHA-treated Jurkat/PD-1 cells. The format is cell-based. Here is the method:
as §1, with “of PD-1” for “of PD-L1”, “in PD-1-overexpressing Jurkat T cells (Jurkat/PD-1 cells), Jurkat/PD-1 cells” for “in colorectal cancer cells, MC38”, “with 2 μg/mL Phytohaemagglutinin (PHA)” for “with IFNγ (10 ng/mL) for 24 h”, “μM 7k” for “μM”, “collected were” for “collected and”, “APC-conjugated PD-1” for “APC-conjugated PD-L1”

Another experiment relates to colorectal cancer cells. As to the kind of experiment: Cell viability assay (CCK-8), colorectal cancer cells. The format is cell-based. The settings on record: 24 h. Here is the method:
Chinese hamster ovary CHO cells, mouse fibroblast L929 cells, normal colon CCD18-Co cells, monkey kidney fibroblast COS-7 cells, colorectal cancer cells including HCT-116, RKO, SW480, SW620, CT26, and MC38 cells were purchased from ATCC (American Type Culture Collection). CHO, L929, Cos-7, and all cancer cells were maintained in RPMI 1640 or DMEM supplemented with 10% FBS (Gibco FBS; Thermo Fisher Scientific, Hanover Park, IL, USA) and 1% streptomycin/penicillin. CCD18-Co cells were cultured in high-glucose Dulbecco modified Eagle medium containing 10% FBS and 1% streptomycin/penicillin. All cells were grown in 5% CO2 at 37 °C. Mycoplasma testing was regularly performed every month using the BioMycoX Mycoplasma PCR Detection Kit (CellSafe, Yongin, Republic of Korea).
Cell viability was analyzed using a Cell Counting Kit-8 (Dojindo molecular technologies, Rockville, MD, USA). Cells were seeded in 96-well plates and treated with different concentrations of 7k. At the indicated time points, CCK-8 (10 μL/well) reagents were added to the cells, followed by further incubation at 37 °C for 90 min. The absorbance at 450 nm was measured using a plate reader (BioTek instruments, Winooski, VT, USA).

For `CC(C)n1cc2nc(-c3cc(F)cc(F)c3)nc(NCCc3c[nH]c4ccccc34)c2n1` [Compound 7k, N-(2-(1H-indol-3-yl)ethyl)-5-(3,5-difluorophenyl)-2-isopropyl-2H-pyrazolo [4,3-d]pyrimidin-7-amine], the PD-L1 expression result in experiment [1] is “dose-dependent downregulation of PD-L1 expression”. Besides, in experiment [2], the Bcl-2 expression result was “downregulation of Bcl-2”; the “cleaved poly (ADP-ribose) polymerase and cleaved caspase 3” value is “upregulation of cleaved poly (ADP-ribose) polymerase and cleaved caspase 3”; the p21 expression entry is “increase in p21”; the p53 expression result is “upregulation of p53”. Further, the “levels of CD8+ IFNγ T lymphocytes” value in experiment [3] is “increased the levels of CD8+ IFNγ T lymphocytes”. In addition, the PD-1 expression result in experiment [4] is recorded as “reduced PD-1 expression”. The “cell proliferation / viability of colorectal cancer cells” value in the experiment with colorectal cancer cells is “dose-dependent decrease in cell proliferation”.
